Measurements: patent publication US6958311B2, “Flowering regulators” (Riken, priority 2000, dated 2005)

System: American Blue (Evolvulus pilosus)
Assay: Flowering of American Blue pots in greenhouse after spraying with brassinazole solution
Type: in vivo
Conditions: sprayed 1000 g/ha on days 0, 7, 14 and 30
Text: In the figure, □ indicates the result of a group treated with the flowering regulator of the present invention (brassinazole), and ∇ indicates the result of an untreated group. The vertical axis indicates a rate of flowering, and the horizontal axis indicates the number of days after the treatment. The arrows indicate the days when the flowering regulator is sprayed. Forty four pots of American Blue (Evolvulus pilosus) of about one month after cutting, which were purchased as-commercial products, were grown in a greenhouse at 22° C. under a natural light condition during the day and an artificial light condition during the night. These pots were divided into two groups, and 22 plants were sprayed with brassinazole [4-(4-chlorophenyl)-2-phenyl-3-(1,2,4-triazoyl)butan-2-ol] solution in an amount of 1000 g/ha on days 0, 7, 14 and 30. The other group (22 plants) was grown under the same conditions except for the treatment with the agent. As the brassinazole solution, 0.5 mg/ml aqueous solution containing 0.1% dimethyl sulfoxide and 0.1% Tween 20 was prepared, and diluted to a 1/10 concentration with water upon use and sprayed by using a spray in the predetermined amount.

Compound: CC(O)(c1ccccc1)C(Cc1ccc(Cl)cc1)n1cncn1 (centres unmarked) [brassinazole, 4-(4-chlorophenyl)-2-phenyl-3-(1,2,4-triazoyl)butan-2-ol]
- flowering accelerating effect (compared with the untreated plot): clearly demonstrated
- flowering (rate of flowering) (greenhouse 22° C., 22 plants, untreated plot: flowering on only one plant on day 35): flowering occurred after flower-bud formation
